Measured values: patent US20090042856A1, “PYRIDAZINONE DERIVATIVES USED FOR THE TREATMENT OF PAIN” (Astellas Pharma Inc, priority 2005, published 2009)
Counter-ions that a name gives are not always drawn.

test system: adjuvant-induced arthritis rats; test: Inhibition of hind paw swelling in adjuvant-induced arthritis rats; format: in vivo, Lewis rats; conditions: Rattus norvegicus, po, 600 h, dose 0.3 mg/kg orally once a day from days 15 to 24, left hind paw volume on day 25, read-out: % inhibition of vehicle-treated rats
Description: Arthritis was induced by injection of 0.5 mg of Mycobacterium tuberculosis (Difco Laboratories, Detroit, Mich.) in 50 μL of liquid paraffin into the right hind footpad of female Lewis rats aged 7 weeks (day 0). Normal untreated rats were used as negative controls. Animals were randomized and grouped (n≧5) for drug treatment based on an increase of left hind paw volume and body weight on day 15. Test compounds were suspended in vehicle (0.5% methylcellulose) and orally administered once a day from days 15 to 24. The volume of the left hind paw was measured on day 25 by a water displacement method using a plethymometer for rats (MK-550; Muromachi Kikai Co., Ltd., Tokyo, Japan).

`Cc1ccccc1-n1nc(-c2c(-c3ccc(F)cc3F)nn3c2NCC(CN(C)C)C3)ccc1=O` (stereo not shown) [Example 1, 6-{2-(2,4-difluorophenyl)-6-[(dimethylamino)methyl]-4,5,6,7-tetrahydropyrazolo[1,5-a]pyrimidin-3-yl}-2-(2-methylphenyl)-3(2H)-pyridazinone] was tested, and the inhibition in vivo at 0.3 mg/kg was 51.2%.

same assay, conditions: Rattus norvegicus, po, 600 h, dose 0.5 mg/kg orally once a day from days 15 to 24, left hind paw volume on day 25, read-out: % inhibition of vehicle-treated rats

Work on `Cc1ccccc1-n1nc(-c2c(-c3ccc(F)cc3)nn3c2NC[C@@H](O)C3)ccc1=O` [Example 100, 6-[(6R)-2-(4-Fluorophenyl)-6-hydroxy-4,5,6,7-tetrahydropyrazolo[1,5-a]pyrimidin-3-yl]-2-(2-methylphenyl)pyridazin-3(2H)-one] yielded an inhibition in vivo at 0.5 mg/kg of 40.2%.

same assay, conditions: Rattus norvegicus, po, 600 h, dose 1 mg/kg orally once a day from days 15 to 24, left hind paw volume on day 25, read-out: % inhibition of vehicle-treated rats

First: Cc1ccccc1-n1nc(-c2c(-c3ccc(F)cc3)nn3c2NCC(C)(C)C3)ccc1=O [Example 132, 6-[2-(4-Fluorophenyl)-6,6-dimethyl-4,5,6,7-teterahydropyrazolo[1,5-a]pyrimidin-3-yl]-2-(2-methylphenyl)pyridazin-3(2H)-one]
Second: Cc1ccccc1-n1nc(-c2c(-c3ccc(F)cc3)nn3c2NCC2(C3)OCCO2)ccc1=O [Example 86, 6-[2′-(4-Fluorophenyl)-4′,5′-dihydrospiro[1,3-dioxolane-2,6′-pyrazolo[1,5-a]pyrimidin]-3′-yl]-2-(2-methylphenyl)pyridazin-3(2H)-one]
The inhibition in vivo at 1 mg/kg of the first is higher: 60.4% for the first, 48.1% for the second.

First: Cc1ccccc1-n1nc(-c2c(-c3ccc(F)cc3)nn3c2N[C@H](CO)CC3)ccc1=O [Example 123, 6-[(5S)-2-(4-fluorophenyl)-5-(hydroxymethyl)-4,5,6,7-tetrahydropyrazolo[1,5-a]pyrimidin-3-yl]-2-(2-methylphenyl)pyridazin-3(2H)-one]
Second: Cc1ccccc1-n1nc(-c2c(-c3ccc(F)cc3)nn3c2NC(CO)CC3)ccc1=O (stereo in doubt) [Example 124, 6-[(5S)-2-(4-Fluorophenyl)-5-(hydroxymethyl)-4,5,6,7-tetrahydropyrazolo[1,5-a]pyrimidin-3-yl]-2-(2-methylphenyl)pyridazin-3(2H)-one]
The inhibition in vivo at 1 mg/kg of the first is higher: 62.3% for the first, 50.6% for the second.

Compared with `Cc1ccccc1-n1nc(-c2c(-c3ccc(F)cc3)nn3c2NCC(CO)C3)ccc1=O` (stereo not shown) [Example 3, 6-[2-(4-Fluorophenyl)-6-(hydroxymethyl)-4,5,6,7-tetrahydropyrazolo[1,5-a]pyrimidin-3-yl]-2-(2-methylphenyl)-3(2H)-pyridazinone], `Cc1ccccc1-n1nc(-c2c(-c3ccc(F)cc3)nn3c2NCC(O)C3)ccc1=O` (stereo not shown) [Example 18, 6-[2-(4-Fluorophenyl)-6-hydroxy-4,5,6,7-tetrahydropyrazolo[1,5-a]pyrimidin-3-yl]-2-(2-methylphenyl)-3(2H)-pyridazinone] is lower in inhibition in vivo at 1 mg/kg: 56.4% for the first, 46.1% for the second.

Going from `Cc1ccccc1-n1nc(-c2c(-c3ccc(F)cc3)nn3c2NCC2(CCOCC2)C3)ccc1=O` [Example 63, 6-[2′-(4-Fluorophenyl)-2,3,4′,5,5′,6-hexahydrospiro[pyran-4,6′-pyrazolo[1,5-a]pyrimidin]-3′-yl]-2-(2-methylphenyl)pyridazin-3(2H)-one] to `Cc1ccccc1-n1nc(-c2c(-c3ccc(F)cc3F)nn3c2NCC(CO)C3)ccc1=O` (stereo not shown) [Example 37, 6-[2-(2,4-Difluorophenyl)-6-(hydroxymethyl)-4,5,6,7-tetrahydropyrazolo[1,5-a]pyrimidin-3-yl]-2-(2-methylphenyl)pyridazin-3(2H)-one], the inhibition in vivo at 1 mg/kg rises from 39.5% to 63.6%.

test system: TNF-α production in THP-1 cells; test: Inhibition of TNF-α production in THP-1 cells; format: cell-based; conditions: Homo sapiens; TNF-α levels from LPS (10 μg/mL) stimulated THP-1 cells, 100 nM test compound, 20 hours, vs 0.1% DMSO control
Description: THP-1 cells, a human monocytic cell line, were maintained in RPMI 1640 (Sigma R8758) supplemented with penicillin (50 U/ml), streptomycin (50 μg/ml) and 10% fetal bovine serum (Moregate BioTech.) at 37° C., 5% CO2 in a humidified incubator. Initial stock solutions of test compounds were made in DMSO. All cells, reagents and test compounds were diluted into culture media. THP-1 cells (1×10^5 cells/well final) and lipopolysaccharide (LPS; 10 μg/mL final; Sigma L-4005, from E. coli serotype 055:B5) were added to 96 well polypropylene culture plates (Sumilon, MS-8196F5; sterile) containing test compound or 0.1% DMSO vehicle. The cell mixture was incubated for 20 hours in a humidified incubator at 37° C., 5% CO2. The culture supernatants were harvested and TNF-α levels from LPS stimulated cells in the presence of 100 nM test compound was calculated compared with control cells stimulated in the presence of 0.1% DMSO.

First: Cc1ccccc1-n1nc(-c2c(-c3ccc(F)cc3)nn3c2NCC(C(=O)NC2CC2)C3)ccc1=O (stereo not shown) [Example 57, N-cyclopropyl-2-(4-fluorophenyl)-3-[1-(2-methylphenyl)-6-oxo-1,6-dihydropyridazin-3-yl]-4,5,6,7-tetrahydropyrazolo[1,5-a]pyrimidine-6-carboxamide]
Second: Cc1ccccc1-n1nc(-c2c(-c3ccc(F)cc3)nn3c2N[C@H](CO)CC3)ccc1=O [Example 123, 6-[(5S)-2-(4-fluorophenyl)-5-(hydroxymethyl)-4,5,6,7-tetrahydropyrazolo[1,5-a]pyrimidin-3-yl]-2-(2-methylphenyl)pyridazin-3(2H)-one]
The inhibition at 0.1 µM of the first is higher: 97% for the first, 94% for the second.

Compared with `Cc1ccccc1-n1nc(-c2c(-c3ccc(F)cc3)nn3c2OCC3)ccc1=O` [Example 125, 6-[6-(4-fluorophenyl)-2,3-dihydropyrazolo[5,1-b][1,3]oxazol-7-yl]-2-(2-methylphenyl)pyridazin-3(2H)-one], `CCN1CCn2nc(-c3ccc(F)cc3)c(-c3ccc(=O)n(-c4ccccc4C)n3)c21` [Example 6, 6-[1-Ethyl-6-(4-fluorophenyl)-2,3-dihydro-1H-imidazo[1,2-b]pyrazol-7-yl]-2-(2-methylphenyl)-3(2H)-pyridazinone] is lower in inhibition at 0.1 µM: 83% for the first, 80% for the second.

Compared with `Cc1ccccc1-n1nc(-c2c(-c3ccc(F)cc3)nn3c2NCC(CO)(CO)C3)ccc1=O` [Example 35, 6-[2-(4-Fluorophenyl)-6,6-bis(hydroxymethyl)-4,5,6,7-tetrahydropyrazolo[1,5-a]pyrimidin-3-yl]-2-(2-methylphenyl)pyridazin-3(2H)-one], `Cc1ccccc1-n1nc(-c2c(-c3ccc(F)cc3)nn3c2NCC(F)(F)C3)ccc1=O` [Example 85, 6-[6,6-Difluoro-2-(4-fluorophenyl)-4,5,6,7-tetrahydropyrazolo[1,5-a]pyrimidin-3-yl]-2-(2-methylphenyl)pyridazin-3(2H)-one] is lower in inhibition at 0.1 µM: 90% for the first, 88% for the second.

First: Cc1ccccc1-n1nc(-c2c(-c3ccc(F)cc3F)nn3c2NCC(CN(C)C)C3)ccc1=O (stereo not shown) [Example 1, 6-{2-(2,4-difluorophenyl)-6-[(dimethylamino)methyl]-4,5,6,7-tetrahydropyrazolo[1,5-a]pyrimidin-3-yl}-2-(2-methylphenyl)-3(2H)-pyridazinone]
Second: Cc1ccccc1-n1nc(-c2c(-c3ccc(F)cc3F)nn3c2NCC(CO)C3)ccc1=O (stereo not shown) [Example 37, 6-[2-(2,4-Difluorophenyl)-6-(hydroxymethyl)-4,5,6,7-tetrahydropyrazolo[1,5-a]pyrimidin-3-yl]-2-(2-methylphenyl)pyridazin-3(2H)-one]
The inhibition at 0.1 µM of the first is lower: 88% for the first, 94% for the second.

Going from `Cc1ccccc1-n1nc(-c2c(-c3ccc(F)cc3)nn3c2NC(CO)CC3)ccc1=O` (stereo in doubt) [Example 124, 6-[(5S)-2-(4-Fluorophenyl)-5-(hydroxymethyl)-4,5,6,7-tetrahydropyrazolo[1,5-a]pyrimidin-3-yl]-2-(2-methylphenyl)pyridazin-3(2H)-one] to `Cc1ccccc1-n1nc(-c2c(-c3ccc(F)cc3)nn3c2NCC(CN2CCN(C)CC2)C3)ccc1=O` (stereo not shown) [Example 47, 6-(2-(4-Fluorophenyl)-6-[(4-methylpiperazin-1-yl)methyl]-4,5,6,7-tetrahydropyrazolo[1,5-a]pyrimidin-3-yl)-2-(2-methylphenyl)pyridazin-3(2H)-one dihydrochloride], the inhibition at 0.1 µM rises from 94% to 95%.

First: Cc1ccccc1-n1nc(-c2c(-c3ccc(F)cc3F)nn3c2NCC(CNC(C)(C)C)C3)ccc1=O (stereo not shown) [Example 98, 6-{6-[(tert-Butylamino)methyl]-2-(2,4-difluorophenyl)-4,5,6,7-tetrahydropyrazolo[1,5-a]pyrimidin-3-yl}-2-(2-methylphenyl)pyridazin-3(2H)-one]
Second: Cc1ccccc1N1N=C(c2c(-c3ccc(F)cc3F)nn3c2NCC(CN(C)C)C3)CCC1=O (stereo not shown) [Example 55, 6-{2-(2,4-difluorophenyl)-6-[(dimethylamino)methyl]-4,5,6,7-tetrahydropyrazolo[1,5-a]pyrimidin-3-yl}-2-(2-methylphenyl)-4,5-dihydropyridazin-3(2H)-one]
The inhibition at 0.1 µM of the first is lower: 86% for the first, 98% for the second.

First: Cc1ccccc1-n1nc(-c2c(-c3ccc(F)cc3F)nn3cc(CN(C)C)cnc23)ccc1=O [Example 2, 6-{2-(2,4-Difluorophenyl)-6-[(dimethylamino)methyl]pyrazolo[1,5-a]pyrimidin-3-yl}-2-(2-methylphenyl)-3(2H)-pyridazinone]
Second: Cc1ccccc1-n1nc(-c2c(-c3ccccc3)nn3c2CN(C(C)C)CC3)ccc1=O [Example 130, 6-(5-isopropyl-2-phenyl-4,5,6,7-tetrahydropyrazolo[1,5-a]pyrazin-3-yl)-2-(2-methylphenyl)pyridazin-3(2H)-one]
The inhibition at 0.1 µM of the first is higher: 98% for the first, 70% for the second.

In the case of `CC(=O)N1CCC2(CC1)CNc1c(-c3ccc(=O)n(-c4ccccc4C)n3)c(-c3ccc(F)cc3)nn1C2` [Example 107, 6-[1-acetyl-2′-(4-fluorophenyl)-4′,5′-dihydrospiro[piperidine-4,6′-pyrazolo[1,5-a]pyrimidin]-3′-yl]-2-(2-methylphenyl)pyridazin-3(2H)-one], the inhibition at 0.1 µM was 90%.
